# In patent US20190029257A1, “APPLICATION FOR HERBICIDE-TOLERANT PROTEIN” (BEIJING DABEINONG TECHNOLOGY GROUP CO., LTD., priority 2016, published 2019):
# Columns and labels:
# Format in all cases: in vivo
# [1] = test system: Gm chloroplastic ALT-1-01 soybean plants; experiment: Halosulfuron-methyl tolerance of soybean plants (damage degree); settings: 34 g ai/ha (1x Hal.); for Average damage % 3 DAT: 3 days after spraying; for Average damage % 7 DAT: 7 days after spraying; for Average damage % 14 DAT: 14 days after spraying; for Average damage % 21 DAT: 21 days after spraying
# Excerpt: (§1) The herbicide tolerance effects of Gm cytoplasmic ALT-1-01 soybean plants, Gm chloroplastic ALT-1-01 soybean plants, Gm cytoplasmic ALT-2-01 soybean plants, Gm chloroplastic ALT-2-01 soybean plants, Gm cytoplasmic ALT-3-01 soybean plants, Gm chloroplastic ALT-3-01 soybean plants and wild-type soybean plants on halosulfuron-methyl were detected (at seedling stage), respectively.
# (§2) Gm cytoplasmic ALT-1-01 soybean plants, Gm chloroplastic ALT-1-01 soybean plants, Gm cytoplasmic ALT-2-01 soybean plants, Gm chloroplastic ALT-2-01 soybean plants, Gm cytoplasmic ALT-3-01 soybean plants, Gm chloroplastic ALT-3-01 soybean plants and wild-type soybean plants were respectively taken and sprayed with halosulfuron-methyl (34 g ai/ha, 1-fold field concentration) and a blank solvent (water). The damage degree caused by the herbicide was measured for each plant according to the leaf curl degree and the growth point damage degree 3 days after spraying (3 DAT), 7 days after spraying (7 DAT), 14 days after spraying (14 DAT) and 21 days after spraying (21 DAT), respectively: considering conditions of leaves being flat as the untreated plants and growth points being intact as having a damage degree of 0%; considering conditions of veins being locally browned, new leaves being malformed and plant growth being slow as having a damage degree of 50%; and considering conditions of veins being purple to whole plant being dead and growth points being browned and dry as having a damage degree of 100%. There were 2 strains in Gm cytoplasmic ALT-1-01 soybean plants in total (S1 and S2), 2 strains in Gm chloroplastic ALT-1-01 soybean plants in total (S3 and S4), 2 strains in Gm cytoplasmic ALT-2-01 soybean plants in total (S5 and S6), 2 strains in Gm chloroplastic ALT-2-01 soybean plants in total (S7 and S8), 2 strains in Gm cytoplasmic ALT-3-01 soybean plants in total (S9 and S10), 2 strains in Gm chloroplastic ALT-3-01 soybean plants in total (S11 and S12), and 1 strain in wild-type soybean plants (CK1) in total; and 10-15 plants were selected from each strain and tested.
# [2] = test system: Gm cytoplasmic ALT-3-01 soybean plants; experiment: as above; settings: 34 g ai/ha (1-fold field concentration); for Average damage % 3 DAT: 3 days after spraying; for Average damage % 7 DAT: 7 days after spraying; for Average damage % 14 DAT: 14 days after spraying; for Average damage % 21 DAT: 21 days after spraying
# Excerpt: as §1, §2
# [3] = test system: Gm cytoplasmic ALT-1-01 soybean plants; experiment: as above; settings: 34 g ai/ha (1x Hal.); for Average damage % 3 DAT: 3 days after spraying; for Average damage % 7 DAT: 7 days after spraying; for Average damage % 14 DAT: 14 days after spraying; for Average damage % 21 DAT: 21 days after spraying
# Excerpt: as §1, §2
# [4] = test system: Gm cytoplasmic ALT-2-01 soybean plants; experiment: as above; settings: 34 g ai/ha (1x Hal.); for Average damage % 3 DAT: 3 days after spraying; for Average damage % 7 DAT: 7 days after spraying; for Average damage % 14 DAT: 14 days after spraying; for Average damage % 21 DAT: 21 days after spraying
# Excerpt: as §1, §2
# [5] = test system: Gm chloroplastic ALT-2-01 soybean plants; experiment: as above; settings: 34 g ai/ha (1x Hal.); for Average damage % 3 DAT: 3 days after spraying; for Average damage % 7 DAT: 7 days after spraying; for Average damage % 14 DAT: 14 days after spraying; for Average damage % 21 DAT: 21 days after spraying
# Excerpt: as §1, §2
# [6] = test system: transgenic soybean plants (ALT-1, ALT-2 and ALT-3); experiment: Halosulfuron-methyl tolerance of soybean plants; settings: 34 g ai/ha; summary of Table 3
# Description: as §2, with “There were 2 strains in Gm cytoplasmic ALT-1-01 soybean plants in total (S1 and S2), 2 strains in Gm chloroplastic ALT-1-01 soybean plants in total (S3 and S4), 2 strains in Gm cytoplasmic ALT-2-01 soybean plants in total (S5 and S6), 2 strains in Gm chloroplastic ALT-2-01 soybean plants in total (S7 and S8), 2 strains in Gm cytoplasmic ALT-3-01 soybean plants in total (S9 and S10), 2 strains in Gm chloroplastic ALT-3-01 soybean plants in total (S11 and S12), and 1 strain in wild-type soybean plants (CK1) in total; and 10-15 plants were selected from each strain and tested.” left out
smiles,measurement,setting,value
"COC(=O)c1c(Cl)nn(C)c1S(=O)(=O)NC(=O)Nc1nc(OC)cc(OC)n1 [halosulfuron-methyl, 3-chlorine-5-(4,6-dimethoxypyrimidine-2-aminocarbonylaminosulphonyl)-1-methylpyrazole-4-carboxylic acid methyl ester]",Average damage % 3 DAT,[1]; strain S3,10%
same,Average damage % 7 DAT,[1]; strain S3,5%
same,Average damage % 14 DAT,[1]; strain S3,0%
same,Average damage % 21 DAT,[1]; strain S3,0%
same,Average damage % 3 DAT,[1]; strain S4,11%
same,Average damage % 7 DAT,[1]; strain S4,5%
same,Average damage % 14 DAT,[1]; strain S4,0%
same,Average damage % 21 DAT,[1]; strain S4,0%
same,Average damage % 3 DAT,[2]; strain S9,13%
same,Average damage % 7 DAT,[2]; strain S9,6%
same,Average damage % 14 DAT,[2]; strain S9,0%
same,Average damage % 21 DAT,[2]; strain S9,0%
same,Average damage % 3 DAT,[2]; strain S10,12%
same,Average damage % 7 DAT,[2]; strain S10,5%
same,Average damage % 14 DAT,[2]; strain S10,0%
same,Average damage % 21 DAT,[2]; strain S10,0%
same,Average damage % 3 DAT,[3]; strain S1,13%
same,Average damage % 7 DAT,[3]; strain S1,7%
same,Average damage % 14 DAT,[3]; strain S1,0%
same,Average damage % 21 DAT,[3]; strain S1,0%
same,Average damage % 3 DAT,[3]; strain S2,12%
same,Average damage % 7 DAT,[3]; strain S2,6%
same,Average damage % 14 DAT,[3]; strain S2,0%
same,Average damage % 21 DAT,[3]; strain S2,0%
same,Average damage % 3 DAT,[4]; strain S5,14%
same,Average damage % 7 DAT,[4]; strain S5,6%
same,Average damage % 14 DAT,[4]; strain S5,0%
same,Average damage % 21 DAT,[4]; strain S5,0%
same,Average damage % 3 DAT,[4]; strain S6,12%
same,Average damage % 7 DAT,[4]; strain S6,6%
same,Average damage % 14 DAT,[4]; strain S6,0%
same,Average damage % 21 DAT,[4]; strain S6,0%
same,Average damage % 3 DAT,[5]; strain S7,10%
same,Average damage % 7 DAT,[5]; strain S7,4%
same,Average damage % 14 DAT,[5]; strain S7,0%
same,Average damage % 21 DAT,[5]; strain S7,0%
same,Average damage % 3 DAT,[5]; strain S8,9%
same,Average damage % 7 DAT,[5]; strain S8,5%
same,Average damage % 14 DAT,[5]; strain S8,0%
same,Average damage % 21 DAT,[5]; strain S8,0%
same,tolerance of the plants to the herbicide,[6],high level of halosulfuron-methyl herbicide tolerance
